# Laboratory results as given in patent publication US20030068615A1, “Polypeptides that bind HIV gp120 and related nucleic acids, antibodies, compositions, and methods of use” (priority 1999, published 2003).
# Read-outs that look alike come from different tables or passages of the source.
# Molecular target: HIV-1LAI envelope gp120 (Human immunodeficiency virus type 1 group M subtype B, UniProt P03377)
# Format: binding
# Details: for Counts per 20′ Average-background: CCR5 18-mer scan, radiolabeled HIV-1LAI gp120
# [1] = Panel A, 21-mers of CD4, empty control 515 and 617
# [2] = CXCR4 18-mer scan, background subtracted, empty control 0
# [3] = CXCR4 18-mer scan, empty control 412
# [4] = STRL33 18-mer scan, background subtracted, first of two count columns
# [5] = STRL33 18-mer scan, background subtracted, second of two count columns
# [6] = Panel D, 9-mers and 12-mers of CD4, empty control […]
# [7] = Panel B, 15-mers and 18-mers of CD4, empty control 575
# [8] = Panel C, 15-mers and 18-mers of CD4, empty control 556
# [9] = Panel E, 9-mers and 12-mers of CD4, empty control 571
sequence,measurement,setting,value
ASSIVYKKEGEQVEFSFPLAF,COUNTS of radiolabeled gp120 retained,[1],25146 counts
ATNSQRPRKLLAEKVVYV,radioactive counts recorded in twenty minutes,[2],78 counts
same,radioactive counts recorded in twenty minutes,[3],490 counts
ATQMTLGFFLPLLTMIVC [STRL33 segment 193-210],radioactive counts recorded in twenty minutes,[4],2365.5 counts
same,radioactive counts recorded in twenty minutes,[5],2444.5 counts
AVFALKARTVTFGVVTSV,Counts per 20′ Average-background,background subtracted,63 counts per 20′
AVRLIFTIMTVYFLFWAP [CCR5 segment 233-],Counts per 20′ Average-background,background subtracted,62 counts per 20′
AVVHAVFALKARTVTFGV,Counts per 20′ Average-background,background subtracted,34 counts per 20′
AYLRACLNPVLYAFVSLK [STRL33 segment 277-294],radioactive counts recorded in twenty minutes,[4],1802.5 counts
same,radioactive counts recorded in twenty minutes,[5],1849.5 counts
AYNQQAKRMTWGKVTSLL [STRL33 segment 137-154],radioactive counts recorded in twenty minutes,[4],55.5 counts
same,radioactive counts recorded in twenty minutes,[5],4.5 counts
CEVEDQKEE,COUNTS of radiolabeled gp120 retained,[6],555 counts
CEVEDQKEEVQL,COUNTS of radiolabeled gp120 retained,[6],561 counts
CEVEDQKEEVQLLVF,COUNTS of radiolabeled gp120 retained,[7],1729 counts
CEVEDQKEEVQLLVFGLT,COUNTS of radiolabeled gp120 retained,[7],3797 counts
CKAVHVIYTVNLYSSVLI,radioactive counts recorded in twenty minutes,[2],243 counts
same,radioactive counts recorded in twenty minutes,[3],655 counts
CKCCSIFQQEAPERASSV [CCR5 segment 321-],Counts per 20′ Average-background,background subtracted,53 counts per 20′
CQLLTGLYFIGFFSGIFF,Counts per 20′ Average-background,background subtracted,489 counts per 20′
CSSSNRLDQAMQVTETLG [CCR5 segment 269-],Counts per 20′ Average-background,background subtracted,90 counts per 20′
CTVLQNQKKVEFKID,COUNTS of radiolabeled gp120 retained,[8],608 counts
CTVLQNQKKVEFKIDIVV,COUNTS of radiolabeled gp120 retained,[8],553 counts
CYSGILKTLLRCRNEKKR,Counts per 20′ Average-background,background subtracted,70 counts per 20′
DAVANWYFGNFLCKAVHV,radioactive counts recorded in twenty minutes,[2],112 counts
same,radioactive counts recorded in twenty minutes,[3],524 counts
DDRYICDRFYPNDLWVVV,radioactive counts recorded in twenty minutes,[2],125 counts
same,radioactive counts recorded in twenty minutes,[3],537 counts
DIGCLPYLGVSHQWKSSE,radioactive counts recorded in twenty minutes,[4],17.5 counts
same,radioactive counts recorded in twenty minutes,[5],78.5 counts
DIVVLAFQK,COUNTS of radiolabeled gp120 retained,[9],686 counts
DIVVLAFQKASS,COUNTS of radiolabeled gp120 retained,[9],746 counts
DIVVLAFQKASSIVY,COUNTS of radiolabeled gp120 retained,[8],776 counts
DIVVLAFQKASSIVYKKE,COUNTS of radiolabeled gp120 retained,[8],660 counts
DIVVLAFQKASSIVYKKEGEQ,COUNTS of radiolabeled gp120 retained,[1],788 counts
DLVFVCTLPFWAYAGIHE [STRL33 segment 77-94],radioactive counts recorded in twenty minutes,[4],1116.5 counts
same,radioactive counts recorded in twenty minutes,[5],1063.5 counts
DLWVVVFQFQHIMVGLIL [CXCR4 segment 193-210],radioactive counts recorded in twenty minutes,[2],422 counts
same,radioactive counts recorded in twenty minutes,[3],834 counts
DQGNFPLII,COUNTS of radiolabeled gp120 retained,[6],662 counts
DQGNFPLIIKNL,COUNTS of radiolabeled gp120 retained,[6],604 counts
DQGNFPLIIKNLKIE,COUNTS of radiolabeled gp120 retained,[7],635 counts
DQGNFPLIIKNLKIEDSD,COUNTS of radiolabeled gp120 retained,[7],598 counts
DQKEEVQLL,COUNTS of radiolabeled gp120 retained,[6],589 counts
DQKEEVQLLVFG,COUNTS of radiolabeled gp120 retained,[6],1624 counts
DQKEEVQLLVFGLTA,COUNTS of radiolabeled gp120 retained,[7],3905 counts
DQKEEVQLLVFGLTANSD,COUNTS of radiolabeled gp120 retained,[7],3317 counts
